Data published in publication PMC6274284 (Molecules, 2016).

Experiments:
hGRX1 [1] = target: T1, hGRX1 (Homo sapiens, UniProt P35754, C83S); format: binding
hGRX1 [2] = target: T1, hGRX1; format: binding; remark: listed apart in the source
hGRX1 [3] = target: T1, hGRX1; test: biochemical; format: binding

T1 sequence (P35754 whole entry C83S, looked up): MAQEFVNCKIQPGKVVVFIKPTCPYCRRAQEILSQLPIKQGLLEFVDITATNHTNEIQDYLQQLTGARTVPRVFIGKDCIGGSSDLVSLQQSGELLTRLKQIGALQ

SMILES | MaxRel.STD hGRX1 (hGRX1 [1]) | also measured
COC(=O)c1cccc2cc[nH]c12 [RK028] | 11.2% | –
O=C(O)c1ccc(-c2cnco2)cc1 [RK036] | 2.1% | –
OCc1cc(-c2cccs2)[nH]n1 [RK126] | 23.4% | –
Nc1ccccc1N1CCNCC1 [RK155] | – | trNOE binding result, hGRX1 (hGRX1 [2]): did not bind
O=C(O)c1ccc(-n2cccc2)cc1 [RK207] | 0.5% | Kd (hGRX1 [3]): 2.45 ± 0.52 mM
Cn1nc(C(=O)O)cc1-c1ccccc1 [RK246] | 0.6% | Kd (hGRX1 [3]): 5.22 ± 1.16 mM
COCc1cc(=O)oc2cc(N)ccc12 [RK411] | 13.7% | –
Nc1ccc(CN2CCOCC2)cc1 [RK428] | 0.6% | –
COCc1cc(=O)oc2cc(O)c(Cl)cc12 [RK450] | 37.1% | –
C=CC(N)=O [acrylamide, reference compound] | – | Reaction half life, hGRX (hGRX; human): about 20 h
C=CC(=O)NCc1ccn(-c2ccc(C(=O)OC)cc2)c1 [compound 5, Methyl 4-(3-(Acrylamidomethyl)-1H-pyrrol-1-yl)benzoate] | – | Enhancement of rate of reaction over naked acrylamide, hGRX (hGRX): about 35 fold
